The source of these data is paper PMC8359613, “An essential vesicular-trafficking phospholipase mediates neutral lipid synthesis and contributes to hemozoin formation in Plasmodium falciparum” (BMC Biology, 2021).

The target of this experiment is T1, PfLPL1 (Plasmodium falciparum, UniProt Q8IK69).
T1 construct: gene PF3D7_1476700; full length 1-353, expressed from pETM-41 in E. coli BL21(DE3); Ni-NTA then amylose resin (implies His-MBP fusion)
T1 sequence (Q8IK69 1-353): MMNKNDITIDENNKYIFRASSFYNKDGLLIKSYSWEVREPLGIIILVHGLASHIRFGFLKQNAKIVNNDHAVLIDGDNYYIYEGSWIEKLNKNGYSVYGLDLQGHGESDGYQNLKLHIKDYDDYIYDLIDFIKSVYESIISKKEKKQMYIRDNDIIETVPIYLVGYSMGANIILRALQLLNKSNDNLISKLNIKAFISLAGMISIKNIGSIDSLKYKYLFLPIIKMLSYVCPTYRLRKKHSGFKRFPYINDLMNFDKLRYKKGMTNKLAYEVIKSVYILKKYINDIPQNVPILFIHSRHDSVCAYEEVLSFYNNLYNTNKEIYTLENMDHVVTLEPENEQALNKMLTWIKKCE
Nature of the experiment: coupled Amplex Red fluorescence assay (GPC phosphodiesterase, choline oxidase, HRP). In kind it is biochemical. The conditions noted are these: substrate 0-70 µM; Tris-HCl, CaCl2, pH 8.0; room temperature; acyl chain of LPC not stated; reaction mix lists 0.5 mM lecithin.

Consider LPC, for which the Michaelis-Menten constant (Km) was found to be 61.2 ± 5.9 µM.

For orientation: Km means the concentration of substrate that gives half-maximal velocity.
